Literature values in patent US6620802B1, “Methods of treating mild cognitive impairment using a glucocorticoid-specific receptor antagonist” (Corcept Therapeutics, Inc., priority 1999, dated 2003).

Legend:
[1] = system: rat hippocampus; conditions: Talmi et al. 1996
[2] = target: T1, glucocorticoid (GR) receptor (Homo sapiens, UniProt P04150); conditions: literature statement
T1 sequence (P04150 1-777): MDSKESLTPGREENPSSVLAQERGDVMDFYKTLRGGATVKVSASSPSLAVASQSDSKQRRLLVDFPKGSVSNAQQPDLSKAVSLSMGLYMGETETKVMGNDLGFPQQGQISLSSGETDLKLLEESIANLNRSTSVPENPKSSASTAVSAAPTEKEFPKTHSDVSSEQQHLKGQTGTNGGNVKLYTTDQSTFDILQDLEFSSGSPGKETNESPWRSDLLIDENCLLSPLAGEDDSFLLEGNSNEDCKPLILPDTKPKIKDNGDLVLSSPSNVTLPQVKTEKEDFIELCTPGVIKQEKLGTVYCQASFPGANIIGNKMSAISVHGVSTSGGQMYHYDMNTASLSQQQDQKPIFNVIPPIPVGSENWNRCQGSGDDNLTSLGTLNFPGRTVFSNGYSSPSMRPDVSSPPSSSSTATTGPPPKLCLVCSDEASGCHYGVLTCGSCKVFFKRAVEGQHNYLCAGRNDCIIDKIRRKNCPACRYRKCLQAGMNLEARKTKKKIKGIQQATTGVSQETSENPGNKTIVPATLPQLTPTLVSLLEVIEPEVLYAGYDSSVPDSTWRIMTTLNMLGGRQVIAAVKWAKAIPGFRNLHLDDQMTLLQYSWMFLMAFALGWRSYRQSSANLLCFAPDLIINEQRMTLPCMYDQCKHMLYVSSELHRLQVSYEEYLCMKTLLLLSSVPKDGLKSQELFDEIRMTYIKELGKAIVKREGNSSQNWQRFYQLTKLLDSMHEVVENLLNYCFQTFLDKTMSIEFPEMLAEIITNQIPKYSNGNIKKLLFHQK

[3] = target: T2, progesterone receptor (Homo sapiens, UniProt P06401); conditions: literature statement
T2 sequence (P06401 1-933): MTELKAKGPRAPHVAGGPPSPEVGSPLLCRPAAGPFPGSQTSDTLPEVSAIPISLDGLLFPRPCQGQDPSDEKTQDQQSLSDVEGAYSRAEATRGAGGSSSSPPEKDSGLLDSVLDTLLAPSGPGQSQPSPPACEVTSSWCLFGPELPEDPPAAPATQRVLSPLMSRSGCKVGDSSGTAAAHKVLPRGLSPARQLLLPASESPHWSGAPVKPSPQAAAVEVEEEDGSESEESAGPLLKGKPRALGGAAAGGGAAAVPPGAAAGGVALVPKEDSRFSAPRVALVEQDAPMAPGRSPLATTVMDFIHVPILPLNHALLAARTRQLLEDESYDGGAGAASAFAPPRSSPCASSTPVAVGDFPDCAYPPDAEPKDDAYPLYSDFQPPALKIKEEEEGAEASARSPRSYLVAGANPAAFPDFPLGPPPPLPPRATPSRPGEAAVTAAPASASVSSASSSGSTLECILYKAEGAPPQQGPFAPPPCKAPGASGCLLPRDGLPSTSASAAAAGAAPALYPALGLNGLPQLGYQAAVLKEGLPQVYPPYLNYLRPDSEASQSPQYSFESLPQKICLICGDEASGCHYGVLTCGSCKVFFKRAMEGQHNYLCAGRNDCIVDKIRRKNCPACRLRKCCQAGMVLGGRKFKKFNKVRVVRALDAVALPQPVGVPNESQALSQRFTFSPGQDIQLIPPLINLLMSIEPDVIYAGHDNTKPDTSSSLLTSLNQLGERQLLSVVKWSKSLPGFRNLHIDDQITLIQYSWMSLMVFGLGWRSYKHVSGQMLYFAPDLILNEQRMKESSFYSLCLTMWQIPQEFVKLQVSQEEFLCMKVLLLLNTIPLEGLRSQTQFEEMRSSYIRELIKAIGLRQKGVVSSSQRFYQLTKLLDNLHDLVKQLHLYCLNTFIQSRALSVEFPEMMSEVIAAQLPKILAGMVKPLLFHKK

[4] = one study, Kawai (1989) supra
[5] = system: mouse hippocampus neuronal cells; conditions: Behl et al. 1997

CC#C[C@]1(O)CC[C@H]2[C@@H]3CCC4=CC(=O)CCC4=C3[C@@H](c3ccc(N(C)C)cc3)C[C@@]21C [Mifepristone, 17-beta-hydroxy-11-beta-(4-dimethyl-aminophenyl)-17-alpha(1-propynyl)-estra-4,9-dien-3-one]
effect on age-associated electrophysiological changes [1]: effective at abrogating some of the age-associated electrophysiological changes | GR antagonist activity [2]: powerful antagonist | progesterone receptor antagonist activity [3]: powerful antagonist | share of the daily dose excreted in the urine [4]: less than 0.5% | protection against oxidative stress-induced neuronal cell death [5]: providing protection against oxidative stress-induced neuronal cell death

CC#C[C@]1(O)CC[C@H]2[C@@H]3CCC4=CC(=O)CCC4=C3[C@@H](c3ccc(OCCN(C)C)cc3)C[C@@]21C [RU009, 11-beta-(4-dimethyl-aminoethoxyphenyl)-17-alpha-(propynyl-17-beta-hydroxy-4,9-estradien-3-one)]
GR antagonist activity [2]: shown to have GR antagonist effects
